Reference: patent publication US9308262B2, “Pharmaceutical composition for administration to nails” (NOVALIQ GMBH, priority 2011, dated 2016)

Experiment: Penetration of drug from SFA-based carrier into excised human toe nails
Type: in vitro ADME
Conditions: for depth below the nail surface at which significant tacrolimus concentrations were found: 1 mg/mL tacrolimus in F6H8 with 3.8 wt.-% ethanol, 1,000 min, 40 μm slices
Protocol: Tacrolimus was dissolved in a liquid carrier comprising F6H8 and 3.8 wt.-% ethanol to obtain a clear solution having a tacrolimus concentration of 1 mg/mL. The composition was used to evaluate the penetration of tacrolimus from an SFA-based carrier into human nails.
Excised human toe nails were obtained and washed in isotonic sodium chloride solution. For each nail, a filter membrane of 16 mm in diameter (2.01 cm^2) was loaded with 30 μL of the test solution, placed onto the nail and incubated for 1,000 min. At the end of the period, the remaining amount of the test solution in the filter and on the nail was collected. From each nail, punch biopsies of 5 mm in diameter (0.1963 cm^2) were obtained. The punch biopsies were frozen and microtomised at −40° C. into 20 horizontal slices of 40 μm thickness. Each slice was extracted and analysed for tacrolimus by HPLC-MS, as were the collected amounts of non-permeated formulation.
The experiment of Example 1 was repeated, except that a solution of ciclopiroxolamine was used instead of a tacrolimus solution. The test composition contained 1% (w/v) of ciclopiroxolamine dissolved in a vehicle of F6H8 and ethanol (85/15 wt.-%).

Compound: Cc1cc(C2CCCCC2)n(O)c(=O)c1 [ciclopiroxolamine]
- depth distribution of ciclopiroxolamine in the nail matrix (1% (w/v) ciclopiroxolamine in F6H8 and ethanol (85/15 wt.-%), 1,000 min): Significant amounts of drug were found throughout the depth of the nail matrix
- fraction of the administered amount of ciclopiroxolamine found in the nail matrix (1% (w/v) ciclopiroxolamine in F6H8 and ethanol (85/15 wt.-%), 1,000 min incubation): 49.5%

Compound: C=CC[C@@H]1/C=C(\C)C[C@H](C)C[C@H](OC)[C@H]2O[C@@](O)(C(=O)C(=O)N3CCCC[C@H]3C(=O)O[C@H](/C(C)=C/[C@@H]3CC[C@@H](O)[C@H](OC)C3)[C@H](C)[C@@H](O)CC1=O)[C@H](C)C[C@@H]2OC [tacrolimus]
- depth below the nail surface at which significant tacrolimus concentrations were found: 400 μm
- depth below the nail surface at which significant tacrolimus concentrations were found (listed as Tacrolimus): ≥ 400 μm
- total amount of tacrolimus found in the nails, relative to the administered dose (30 μL of 1 mg/mL tacrolimus solution in F6H8 with 3.8 wt.-% ethanol, 1,000 min incubation, HPLC-MS): approx. 9%
